{"source": "patent US20250297243A1", "about": "“SINGLE CELL MULTIOMICS” (BioSkryb Genomics, Inc., priority 2022, published 2025)", "tested_on": "MOLM-13 acute myeloid leukemia cells", "assay": "MOLM-13 quizartinib drug resistance model (cell growth under continual drug treatment)", "type": "cell-based", "method": "Since the ITD mutation, found in ˜20% of AML patients, hyperactivates FLT3 signaling and results in poor prognosis and relapse, non-resistant, drug-sensitive cells were treated with a continual dose of 2 nM quizartinib. This drug is a selective type II kinase inhibitor targeting FLT3. […] MOLM-13 acute myeloid leukemia cells harboring heterozygous FLT3 internal tandem duplication (ITD) were obtained from the DSMZ-German Collection of Microorganisms and Cell Cultures (ACC 554). Cells were maintained in RPMI 1640 (Gibco 11875-093) supplemented with 10% FBS and penicillin/streptomycin, and sub-cultured every 2-3 days while maintaining a density range of 2.5 E5-1.5 E6 cells/ml. For generation of the quizartinib-resistant MOLM-13 line, cells were continually treated with 2 nM quizartinib (Selleckchem AC220) or DMSO vehicle control for matched parental control line and drug replenished at each subculturing until emergence of resistant clones at 5 weeks duration in culture. Genomic DNA (Zymo Research Quick-DNA Microprep w\\Plus Kit, D3020) or total RNA (Qiagen RNeasy Plus Kit, 74034) was isolated from quizartinib-resistant and matched parental MOLM-13 cells at time of FACS sorting to generate bulk sequencing control libraries for comparison to single cell datasets and for quantitative PCR template.", "data": [{"smiles": "CC(C)(C)c1cc(NC(=O)Nc2ccc(-c3cn4c(n3)sc3cc(OCCN5CCOCC5)ccc34)cc2)no1", "note": "[quizartinib]", "values": [{"measurement": "emergence of resistant clones, duration in culture", "setting": "continual 2 nM quizartinib, drug replenished at each subculturing", "result": 5, "unit": "weeks"}, {"measurement": "growth inhibition/apoptosis of drug-sensitive MOLM-13 cells", "setting": "continual dose of 2 nM quizartinib, FLT3 ITD MOLM-13 cells, before resistance emerged", "result": "marked growth inhibition/apoptosis"}]}]}
